Data reported in patent US9827235B2, “Pharmaceutical compositions comprising antibacterial agents” (WOCKHARDT LIMITED, priority 2013, dated 2017).
Like-named read-outs stand apart in the source and are kept apart here.

Legend:
Format in all cases: cell-based
[1] = system: highly resistant strains of E. coli, K. pneumonia and P. aeruginosa; assay: MIC, summary over the strain panel; details: for MICs (range over the strains): agent alone
Method: (§1) The antibacterial activity of combinations according to the invention was investigated against various bacterial strains. In a typical study, minimum inhibitory concentrations (MIC) were determined using Muller Hinton Agar (MHA) (BD, USA) according to Clinical and Laboratory Standards Institute (CLSI) recommendations, (Clinical and Laboratory Standards Institute (CLSI), Performance Standards for Antimicrobial Susceptibility Testing, 20th Informational Supplement, M 100-S20, Volume 30, No. 1, 2010). In short, the inocula were adjusted to deliver about 10^4 colony forming units (CFU) per spot with a multipoint inoculator (Applied Quality Services, UK). The plates were pored with doubling concentration range of the test combinations according to invention containing MHA. The plates were inoculated and were incubated at 35° C. for 18 hours.

[2] = system: P. aeruginosa Q-111; assay: MIC on Muller Hinton Agar (CLSI)
Method: as §1

[3] = system: E. coli S 330; assay: MIC on Muller Hinton Agar (CLSI); details: for MIC: Escherichia coli, S330, agent alone, enzymes NDM, read-out: MIC
Method: as §1

[4] = system: E. coli M 44; assay: MIC on Muller Hinton Agar (CLSI); details: for MIC: enzymes TEM
Method: as §1

[5] = system: K. pneumoniae NCTC 13439; assay: MIC on Muller Hinton Agar (CLSI); details: for MIC: Klebsiella pneumoniae, NCTC13439, agent alone, enzymes VIM-1, read-out: MIC
Method: as §1

[6] = system: P. aeruginosa S 513; assay: MIC on Muller Hinton Agar (CLSI)
Method: as §1

[7] = system: E. coli S 33; assay: MIC on Muller Hinton Agar (CLSI); details: for MIC: enzymes TEM
Method: as §1

[8] = system: K. pneumoniae M 3; assay: MIC on Muller Hinton Agar (CLSI); details: for MIC: enzymes SHV, CTXM, TEM
Method: as §1

[9] = system: K. pneumoniae S 48; assay: MIC on Muller Hinton Agar (CLSI); details: for MIC: enzymes SHV, TEM
Method: as §1

[10] = system: E. coli S 35; assay: MIC on Muller Hinton Agar (CLSI); details: for MIC: enzymes TEM
Method: as §1

[11] = system: E. coli S 16; assay: MIC on Muller Hinton Agar (CLSI); details: for MIC: enzymes CMY type, TEM, DHA
Method: as §1

[12] = system: P. aeruginosa S 504; assay: MIC on Muller Hinton Agar (CLSI)
Method: as §1

[13] = system: K. pneumoniae S 50; assay: MIC on Muller Hinton Agar (CLSI); details: for MIC: enzymes SHV, TEM
Method: as §1

[14] = system: E. coli S 30; assay: MIC on Muller Hinton Agar (CLSI); details: for MIC: enzymes CMY type, TEM
Method: as §1

[15] = system: P. aeruginosa H 113720186; assay: MIC on Muller Hinton Agar (CLSI); details: for MIC: enzymes IMP
Method: as §1

[16] = system: K. pneumoniae B 77; assay: MIC on Muller Hinton Agar (CLSI); details: for MIC: enzymes SHV, TEM
Method: as §1

[17] = system: P. aeruginosa S 508; assay: MIC on Muller Hinton Agar (CLSI)
Method: as §1

[18] = system: K. pneumoniae B 88; assay: MIC on Muller Hinton Agar (CLSI); details: for MIC: enzymes SHV, TEM
Method: as §1

[19] = system: clinical isolate of K. pneumoniae B 88 producing metallo beta-lactamases [SHV, TEM, NDM-1]; assay: Time kill study; details: for Bacterial count: each agent at 8 mcg/ml, initial count 6.18 log CFU/ml; for Change in bacterial count (in words): used alone at 8 mcg/ml, at the end of 6 hours
Method: (§2) Typically, freshly grown cultures were diluted to the required cell density (initial starting inoculum) in Cation adjusted Muller Hinton broth medium BD, USA). The antibacterial agents at the required concentrations were added into the culture-containing medium either alone or in combination. The samples were incubated under shaking condition (120 rpm) at 37° C. Enumeration of viable bacterial count was undertaken, every 2 hour, by diluting in normal saline and plating on to the Tryptic Soya Agar plates (BD, USA). The plates were incubated for 24 hours to arrive at the viable bacterial count. […] The decrease of 1 Log CFU/ml, after administration of combination of present invention, in comparison to initial bacterial count corresponds to 90% killing of bacteria. Similarly, 2 Log CFU/ml reductions corresponds to 99% killing of bacteria and 3 Log CFU/ml reductions is equal to 99.9% killing of bacteria.

[20] = system: clinical isolate of K. pneumoniae S 48 producing metallo beta-lactamases [SHV, TEM, NDM-1]; assay: Time kill study; details: for Bacterial count: each agent at 8 mcg/ml, initial count 6.84 log CFU/ml
Method: as §2

[21] = Pseudomonas aeruginosa, Q111, agent alone, enzymes OXA-4, OXA-11, read-out: MIC
[22] = Escherichia coli, M44, agent alone, NDM-1, read-out: MIC
[23] = Pseudomonas aeruginosa, S513, agent alone, enzymes VIM-6, read-out: MIC
[24] = Escherichia coli, S33, agent alone, NDM-1, read-out: MIC
[25] = Klebsiella pneumoniae, M3, agent alone, NDM-1, read-out: MIC
[26] = Klebsiella pneumoniae, S48, agent alone, NDM-1, read-out: MIC
[27] = Escherichia coli, S35, agent alone, NDM-1, read-out: MIC
[28] = Escherichia coli, S16, agent alone, read-out: MIC
[29] = Pseudomonas aeruginosa, S504, agent alone, enzymes VIM-6, read-out: MIC
[30] = Klebsiella pneumoniae, S50, agent alone, NDM-1, read-out: MIC
[31] = Escherichia coli, S30, agent alone, NDM-1, read-out: MIC
[32] = Pseudomonas aeruginosa, H113720186, agent alone, read-out: MIC
[33] = Klebsiella pneumoniae, B77, agent alone, NDM-1, read-out: MIC
[34] = Pseudomonas aeruginosa, S508, agent alone, enzymes VIM-11, read-out: MIC
[35] = Klebsiella pneumoniae, B88, agent alone, NDM-1, read-out: MIC

Molecule	MIC [2, 21] [µg/mL]	MIC [3] [µg/mL]	MIC [4, 22] [µg/mL]	MIC [5] [µg/mL]	MIC [6, 23] [µg/mL]	MIC [7, 24] [µg/mL]	MIC [8, 25] [µg/mL]	MIC [9, 26] [µg/mL]	MIC [10, 27] [µg/mL]	MIC [11, 28] [µg/mL]	MIC [12, 29] [µg/mL]	MIC [13, 30] [µg/mL]	MIC [14, 31] [µg/mL]	MIC [15, 32] [µg/mL]	MIC [16, 33] [µg/mL]	MIC [17, 34] [µg/mL]	MIC [18, 35] [µg/mL]	Bacterial count ([19]; 2 hours) [Log CFU/ml]	Bacterial count ([19]; 4 hours) [Log CFU/ml]	Bacterial count ([19]; 6 hours) [Log CFU/ml]	also measured
CC(C)(O/N=C(\C(=O)N[C@@H]1C(=O)N2C(C(=O)[O-])=C(C[n+]3ccccc3)CS[C@H]12)c1csc(N)n1)C(=O)O [ceftazidine, ceftazidime]	–	–	–	–	–	–	–	–	–	–	–	–	–	–	–	–	–	–	–	–	MIC values of ceftazidime in presence of avibactam ([1]; with avibactam at 4 mcg/ml, in most of the cases): more than 16 mcg/ml; MIC (mcg/ml) of ceftazidine in presence of avibactam (4 mcg/ml) ([2]; with avibactam at 4 mcg/ml): 32 µg/mL; MIC (mcg/ml) of ceftazidine in presence of avibactam (4 mcg/ml) ([3]; with avibactam at 4 mcg/ml): >16 µg/mL; MIC (mcg/ml) of ceftazidine in presence of avibactam (4 mcg/ml) ([4]; with avibactam at 4 mcg/ml): >16 µg/mL; MIC (mcg/ml) of ceftazidine in presence of avibactam (4 mcg/ml) ([5]; with avibactam at 4 mcg/ml): >16 µg/mL; MIC (mcg/ml) of ceftazidine in presence of avibactam (4 mcg/ml) ([6]; with avibactam at 4 mcg/ml): >16 µg/mL; MIC (mcg/ml) of ceftazidine in presence of avibactam (4 mcg/ml) ([7]; with avibactam at 4 mcg/ml): >16 µg/mL; MIC (mcg/ml) of ceftazidine in presence of avibactam (4 mcg/ml) ([8]; with avibactam at 4 mcg/ml): >16 µg/mL; MIC (mcg/ml) of ceftazidine in presence of avibactam (4 mcg/ml) ([9]; with avibactam at 4 mcg/ml): >16 µg/mL; MIC (mcg/ml) of ceftazidine in presence of avibactam (4 mcg/ml) ([10]; with avibactam at 4 mcg/ml): >16 µg/mL; MIC (mcg/ml) of ceftazidine in presence of avibactam (4 mcg/ml) ([11]; with avibactam at 4 mcg/ml): >16 µg/mL; MIC (mcg/ml) of ceftazidine in presence of avibactam (4 mcg/ml) ([12]; with avibactam at 4 mcg/ml): >16 µg/mL; MIC (mcg/ml) of ceftazidine in presence of avibactam (4 mcg/ml) ([13]; with avibactam at 4 mcg/ml): >16 µg/mL; MIC (mcg/ml) of ceftazidine in presence of avibactam (4 mcg/ml) ([14]; with avibactam at 4 mcg/ml): >16 µg/mL; MIC (mcg/ml) of ceftazidine in presence of avibactam (4 mcg/ml) ([15]; with avibactam at 4 mcg/ml): >32 µg/mL; MIC (mcg/ml) of ceftazidine in presence of avibactam (4 mcg/ml) ([16]; with avibactam at 4 mcg/ml): >16 µg/mL; MIC (mcg/ml) of ceftazidine in presence of avibactam (4 mcg/ml) ([17]; with avibactam at 4 mcg/ml): >16 µg/mL; MIC (mcg/ml) of ceftazidine in presence of avibactam (4 mcg/ml) ([18]; with avibactam at 4 mcg/ml): >16 µg/mL
C[C@@H](O)[C@H]1C(=O)N2C(C(=O)O)=C(SCCN=CN)C[C@H]12 [Imipenem, imipenem]	–	–	–	–	–	–	–	–	–	–	–	–	–	–	–	–	–	–	–	–	Bacterial count ([20]; 2 hours): 7.38 Log CFU/ml; Bacterial count ([20]; 4 hours): 8.32 Log CFU/ml; Bacterial count ([20]; 6 hours): 8.81 Log CFU/ml
NCC[C@H](O)C(=O)N[C@@H]1C[C@H](N)[C@@H](O[C@H]2O[C@H](CN)[C@@H](O)[C@H](O)[C@H]2O)[C@H](O)[C@H]1O[C@H]1O[C@H](CO)[C@@H](O)[C@H](N)[C@H]1O [Amikacin, amikacin]	16	> 64	> 64	> 64	> 32	> 64	4	> 64	> 64	> 64	> 32	> 64	> 64	> 32	> 64	> 32	> 64	–	–	–	–
colistin	–	–	–	–	–	–	–	–	–	–	–	–	–	–	–	–	–	–	–	–	MICs (range over the strains) ([1]; resistant strains of E. coli, K. pneumonia and P. aeruginosa): 0.5 to 2 µg/mL; MIC ([2]; agent alone, enzymes OXA-4, OXA-11): 2 µg/mL; MIC ([4]; agent alone, NDM-1): 1 µg/mL; MIC ([6]; agent alone, enzymes VIM-6): 2 µg/mL; MIC ([7]; agent alone, NDM-1): 1 µg/mL; MIC ([8]; agent alone, NDM-1): 1 µg/mL; MIC ([9]; agent alone, NDM-1): 1 µg/mL; MIC ([10]; agent alone, NDM-1): 1 µg/mL; MIC ([11]; agent alone): 1 µg/mL; MIC ([12]; agent alone, enzymes VIM-6): 2 µg/mL; MIC ([13]; agent alone, NDM-1): 1 µg/mL; MIC ([14]; agent alone, NDM-1): 0.5 µg/mL; MIC ([15]; agent alone): 2 µg/mL; MIC ([16]; agent alone, NDM-1): 1 µg/mL; MIC ([17]; agent alone, enzymes VIM-11): 2 µg/mL; MIC ([18]; agent alone, NDM-1): 1 µg/mL

The next lines start with results.

MIC [2, 21] [µg/mL]	MIC [3] [µg/mL]	MIC [4, 22] [µg/mL]	MIC [5] [µg/mL]	MIC [6, 23] [µg/mL]	MIC [7, 24] [µg/mL]	MIC [8, 25] [µg/mL]	MIC [9, 26] [µg/mL]	MIC [10, 27] [µg/mL]	MIC [11, 28] [µg/mL]	MIC [12, 29] [µg/mL]	MIC [13, 30] [µg/mL]	MIC [14, 31] [µg/mL]	MIC [15, 32] [µg/mL]	MIC [16, 33] [µg/mL]	MIC [17, 34] [µg/mL]	MIC [18, 35] [µg/mL]	Molecule	Bacterial count ([19]; 2 hours) [Log CFU/ml]	Bacterial count ([19]; 4 hours) [Log CFU/ml]	Bacterial count ([19]; 6 hours) [Log CFU/ml]	also measured
4	0.12	0.12	> 32	8	0.25	0.5	0.5	0.25	0.25	8	0.5	0.25	8	> 32	8	> 32	O=C(NNC(=O)[C@@H]1CC[C@@H]2CN1C(=O)N2OS(=O)(=O)O)[C@@H]1CCCNC1 [Compound of Formula (I), (2S,5R)-sulphuric acid mono-[2-(N′—[(R)-piperidin-3-carbonyl]-hydrazinocarbonyl)-7-oxo-1,6-diaza-bicyclo[3.2.1]oct-6-yl] ester]	6.4	6.08	6.28	MICs (range over the strains) ([1]; most strains of E. coli and K. pneumoniae): 0.1 to 0.5 µg/mL; Change in bacterial count (in words) [19]: no decrease in bacterial count was observed; Bacterial count ([20]; 2 hours): 7.27 Log CFU/ml; Bacterial count ([20]; 4 hours): 7.04 Log CFU/ml; Bacterial count ([20]; 6 hours): 7.45 Log CFU/ml; Change in bacterial count (in words) ([20]; used alone at 8 mcg/ml, at the end of 6 hours): no decrease in bacterial count was observed
4	> 32	32	> 32	> 32	> 32	16	32	> 32	> 32	> 32	> 32	> 32	> 64	> 32	> 32	> 32	C[C@@H](O)[C@H]1C(=O)N2C(C(=O)O)=C(S[C@@H]3CN[C@H](C(=O)N(C)C)C3)[C@H](C)[C@H]12 [Meropenem, meropenem]	6.02	6.3	7.6	Change in bacterial count (in words) [19]: no decrease in bacterial count was observed
